# Measured values: ChEMBL document CHEMBL1201862, “PubChem BioAssay data set” (2004)
#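 Results reflect a 48-hour exposure of cells in 96-well plates to compound at five concentrations. GI50: concentration for 50% inhibition of growth.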 Calls of active or inactive are those of the source. Rule as the data show it: active = GI50 up to about 1.1 µM and inactive = higher.
# Key:
# Test in all cases: NCI-60 cell line screen, 48 h
# SW-620 = system: SW-620
# HCT-116 = system: HCT-116
# HT-29 = system: HT-29
# SF-268 = system: SF-268
# Malme-3M = system: Malme-3M
# OVCAR-3 = system: OVCAR-3
# NCI-H460 = system: NCI-H460
# OVCAR-5 = system: OVCAR-5
# NCI-H23 = system: NCI-H23
# CCRF-CEM = system: CCRF-CEM
# UACC-257 = system: UACC-257
# MDA-N = system: MDA-N
# TK-10 = system: TK-10
# NCI/ADR-RES = system: NCI/ADR-RES
# NCI-H522 = system: NCI-H522
# EKVX = system: EKVX
# RXF 393 = system: RXF 393
# MOLT-4 = system: MOLT-4
# COLO 205 = system: COLO 205
# SNB-19 = system: SNB-19
# OVCAR-4 = system: OVCAR-4
# BT-549 = system: BT-549
# A549 = system: A549
# MDA-MB-231 = system: MDA-MB-231
# SK-MEL-28 = system: SK-MEL-28
# KM12 = system: KM12
# HOP-62 = system: HOP-62
# OVCAR-8 = system: OVCAR-8
# RPMI-8226 = system: RPMI-8226
# M14 = system: M14
# SN12C = system: SN12C
# HL-60 = system: HL-60
# SK-MEL-2 = system: SK-MEL-2
# 786-0 = system: 786-0
# SK-MEL-5 = system: SK-MEL-5
# HCT-15 = system: HCT-15
# U-251 = system: U-251
# K562 = system: K562
# UACC-62 = system: UACC-62
# A498 = system: A498
# CAKI-1 = system: CAKI-1
# MDA-MB-435 = system: MDA-MB-435
# DU-145 = system: DU-145
# SF-539 = system: SF-539
# IGROV-1 = system: IGROV-1
# ACHN = system: ACHN
# SF-295 = system: SF-295
# PC-3 = system: PC-3
# SK-OV-3 = system: SK-OV-3
# MCF7 = system: MCF7
# LOX IMVI = system: LOX IMVI
# Hs-578T = system: Hs-578T
# HCC 2998 = system: HCC 2998
# HOP-92 = system: HOP-92
# UO-31 = system: UO-31
# T47D = system: T47D
# NCI-H226 = system: NCI-H226
# SR = system: SR
# SNB-75 = system: SNB-75
compound,measurement,setting,value
Cc1ccc(S(=O)(=O)NNC2(NS(=O)(=O)c3ccc(Cl)cc3)C(Cl)=C(Cl)C(=O)c3ccccc32)cc1 (stereo not drawn),GI50,SW-620,26 µM (inactive)
same,GI50,HCT-116,17.9 µM (inactive)
same,GI50,HT-29,19.1 µM (inactive)
same,GI50,SF-268,14 µM (inactive)
same,GI50,Malme-3M,17.3 µM (inactive)
same,GI50,OVCAR-3,16.4 µM (inactive)
same,GI50,NCI-H460,17.9 µM (inactive)
same,GI50,OVCAR-5,18.3 µM (inactive)
same,GI50,NCI-H23,15 µM (inactive)
same,GI50,CCRF-CEM,22.9 µM (inactive)
same,GI50,UACC-257,17.6 µM (inactive)
same,GI50,MDA-N,17.4 µM (inactive)
same,GI50,TK-10,16.8 µM (inactive)
same,GI50,NCI/ADR-RES,23.1 µM (inactive)
same,GI50,NCI-H522,21.7 µM (inactive)
same,GI50,EKVX,15.5 µM (inactive)
same,GI50,RXF 393,17 µM (inactive)
same,GI50,MOLT-4,25.6 µM (inactive)
same,GI50,COLO 205,18.1 µM (inactive)
same,GI50,SNB-19,16.3 µM (inactive)
same,GI50,OVCAR-4,16.1 µM (inactive)
same,GI50,BT-549,14.9 µM (inactive)
same,GI50,A549,16.9 µM (inactive)
same,GI50,MDA-MB-231,19 µM (inactive)
same,GI50,SK-MEL-28,25.7 µM (inactive)
same,GI50,KM12,17.3 µM (inactive)
same,GI50,HOP-62,21.3 µM (inactive)
same,GI50,OVCAR-8,21.6 µM (inactive)
same,GI50,RPMI-8226,5.4 µM (inactive)
same,GI50,M14,19 µM (inactive)
same,GI50,SN12C,17 µM (inactive)
same,GI50,HL-60,14.4 µM (inactive)
same,GI50,SK-MEL-2,20 µM (inactive)
same,GI50,786-0,14.1 µM (inactive)
same,GI50,SK-MEL-5,15.2 µM (inactive)
same,GI50,HCT-15,24.4 µM
same,GI50,U-251,21.8 µM (inactive)
same,GI50,K562,7.93 µM (inactive)
same,GI50,UACC-62,16.6 µM (inactive)
same,GI50,A498,17.8 µM (inactive)
same,GI50,CAKI-1,18.4 µM (inactive)
same,GI50,MDA-MB-435,18.8 µM (inactive)
same,GI50,DU-145,18.5 µM (inactive)
same,GI50,SF-539,21.2 µM (inactive)
same,GI50,IGROV-1,14.7 µM (inactive)
same,GI50,ACHN,16.1 µM (inactive)
same,GI50,SF-295,20.9 µM (inactive)
same,GI50,PC-3,16.7 µM (inactive)
same,GI50,SK-OV-3,16.9 µM (inactive)
same,GI50,MCF7,16.4 µM (inactive)
same,GI50,LOX IMVI,23.5 µM (inactive)
same,GI50,Hs-578T,17.2 µM (inactive)
same,GI50,HCC 2998,18.5 µM (inactive)
same,GI50,HOP-92,17.3 µM (inactive)
same,GI50,UO-31,26.8 µM (inactive)
same,GI50,T47D,28.3 µM (inactive)
CC(=O)N1C(Nc2nccs2)CCN1c1ccccc1 (stereo not drawn),GI50,SW-620,> 10 µM (inactive)
same,GI50,HCT-116,> 10 µM (inactive)
same,GI50,HT-29,> 10 µM (inactive)
same,GI50,SF-268,> 10 µM (inactive)
same,GI50,Malme-3M,> 10 µM (inactive)
same,GI50,OVCAR-3,> 10 µM (inactive)
same,GI50,NCI-H460,> 10 µM (inactive)
same,GI50,OVCAR-5,> 10 µM (inactive)
same,GI50,NCI-H23,> 10 µM (inactive)
same,GI50,CCRF-CEM,> 10 µM (inactive)
same,GI50,UACC-257,> 10 µM (inactive)
same,GI50,NCI-H226,> 10 µM (inactive)
same,GI50,MDA-N,> 10 µM (inactive)
same,GI50,TK-10,> 10 µM (inactive)
same,GI50,NCI/ADR-RES,> 10 µM (inactive)
same,GI50,EKVX,> 10 µM (inactive)
same,GI50,RXF 393,> 10 µM (inactive)
same,GI50,MOLT-4,> 10 µM (inactive)
same,GI50,COLO 205,> 10 µM (inactive)
same,GI50,SNB-19,> 10 µM (inactive)
same,GI50,OVCAR-4,> 10 µM (inactive)
same,GI50,BT-549,> 10 µM (inactive)
same,GI50,A549,> 10 µM (inactive)
same,GI50,MDA-MB-231,> 10 µM (inactive)
same,GI50,SK-MEL-28,> 10 µM (inactive)
same,GI50,SR,> 10 µM (inactive)
same,GI50,HOP-62,> 10 µM (inactive)
same,GI50,OVCAR-8,> 10 µM (inactive)
same,GI50,RPMI-8226,> 10 µM (inactive)
same,GI50,M14,> 10 µM (inactive)
same,GI50,SN12C,> 10 µM (inactive)
same,GI50,HL-60,> 10 µM (inactive)
same,GI50,SK-MEL-2,> 10 µM (inactive)
same,GI50,786-0,> 10 µM (inactive)
same,GI50,SK-MEL-5,> 10 µM (inactive)
same,GI50,HCT-15,> 10 µM
same,GI50,K562,> 10 µM (inactive)
same,GI50,SNB-75,> 10 µM (inactive)
same,GI50,CAKI-1,> 10 µM (inactive)
same,GI50,MDA-MB-435,> 10 µM (inactive)
same,GI50,DU-145,> 10 µM (inactive)
same,GI50,SF-539,> 10 µM (inactive)
same,GI50,IGROV-1,> 10 µM (inactive)
same,GI50,ACHN,> 10 µM (inactive)
same,GI50,SF-295,> 10 µM (inactive)
same,GI50,PC-3,> 10 µM (inactive)
same,GI50,MCF7,> 10 µM (inactive)
same,GI50,LOX IMVI,> 10 µM (inactive)
same,GI50,Hs-578T,> 10 µM (inactive)
same,GI50,HCC 2998,> 10 µM (inactive)
same,GI50,HOP-92,> 10 µM (inactive)
same,GI50,T47D,> 10 µM (inactive)
COC(=O)n1c(=O)n(-c2ccccc2)c(=O)n1C(=O)OC,GI50,SW-620,> 100 µM (inactive)
same,GI50,HCT-116,> 100 µM (inactive)
same,GI50,HT-29,> 100 µM (inactive)
same,GI50,SF-268,> 100 µM (inactive)
same,GI50,Malme-3M,> 100 µM (inactive)
same,GI50,OVCAR-3,> 100 µM (inactive)
same,GI50,NCI-H460,> 100 µM (inactive)
same,GI50,OVCAR-5,> 100 µM (inactive)
same,GI50,NCI-H23,> 100 µM (inactive)
same,GI50,CCRF-CEM,> 100 µM (inactive)
same,GI50,UACC-257,> 100 µM (inactive)
same,GI50,NCI-H226,> 100 µM (inactive)
same,GI50,MDA-N,> 100 µM (inactive)
same,GI50,TK-10,> 100 µM (inactive)
same,GI50,NCI/ADR-RES,> 100 µM (inactive)
same,GI50,NCI-H522,> 100 µM (inactive)
same,GI50,EKVX,> 100 µM (inactive)
same,GI50,RXF 393,> 100 µM (inactive)
same,GI50,MOLT-4,> 100 µM (inactive)
same,GI50,COLO 205,> 100 µM (inactive)
same,GI50,SNB-19,> 100 µM (inactive)
same,GI50,OVCAR-4,> 100 µM (inactive)
same,GI50,BT-549,> 100 µM (inactive)
same,GI50,A549,> 100 µM (inactive)
same,GI50,MDA-MB-231,> 100 µM (inactive)
same,GI50,SK-MEL-28,> 100 µM (inactive)
same,GI50,KM12,> 100 µM (inactive)
same,GI50,SR,> 100 µM (inactive)
same,GI50,OVCAR-8,> 100 µM (inactive)
same,GI50,RPMI-8226,> 100 µM (inactive)
same,GI50,M14,> 100 µM (inactive)
same,GI50,SN12C,> 100 µM (inactive)
same,GI50,HL-60,> 100 µM (inactive)
same,GI50,SK-MEL-2,> 100 µM (inactive)
same,GI50,786-0,> 100 µM (inactive)
same,GI50,SK-MEL-5,> 100 µM (inactive)
same,GI50,HCT-15,> 100 µM
same,GI50,U-251,> 100 µM (inactive)
same,GI50,K562,> 100 µM (inactive)
same,GI50,SNB-75,51.2 µM (inactive)
same,GI50,UACC-62,> 100 µM (inactive)
same,GI50,A498,> 100 µM (inactive)
same,GI50,CAKI-1,> 100 µM (inactive)
same,GI50,MDA-MB-435,> 100 µM (inactive)
same,GI50,DU-145,> 100 µM (inactive)
same,GI50,SF-539,> 100 µM (inactive)
same,GI50,IGROV-1,> 100 µM (inactive)
same,GI50,PC-3,> 100 µM (inactive)
same,GI50,SK-OV-3,> 100 µM (inactive)
same,GI50,MCF7,> 100 µM (inactive)
same,GI50,LOX IMVI,> 100 µM (inactive)
same,GI50,Hs-578T,> 100 µM (inactive)
same,GI50,HCC 2998,> 100 µM (inactive)
same,GI50,UO-31,> 100 µM (inactive)
same,GI50,T47D,> 100 µM (inactive)
